Entries after “also recorded” stand apart in the source; their conditions may differ.
Key:
μOR [1] = molecular target: T1, μOR (Homo sapiens (Human), UniProt P35372); type: cell-based
MOR = MOR (Homo sapiens (Human), UniProt P35372); assay: MOR functional annotations (method not given); conditions: for MOR agonist (potency annotation under structure): Table 4 caption line; for functional classification given with the label: binding table, compound cell
mice [2] = assay: Formalin injection assay; conditions: mouse, in vivo
[3] = Pharmacokinetics, serum and brain levels; conditions: mouse, in vivo
Protocol: Studies were performed by the Preclinical Therapeutics Core and the Drug Studies Unit at the University of California San Francisco. […] All studies were performed with approved mouse protocols from the institutional animal care and use committees.

nociceptin receptor = nociceptin receptor (Homo sapiens (Human), UniProt P41146); assay: Gi/o Glosensor assay at nociceptin receptor; type: cell-based
C57BL/6J mice [4] = assay: Tail-flick analgesia; conditions: mouse, in vivo
μOR [5] = molecular target: T1, μOR; assay: β-arrestin2 recruitment by BRET with GRK2 co-expression; type: cell-based
μOR [6] = molecular target: T1, μOR; assay: β-arrestin recruitment, PathHunter enzyme complementation (OPRM1 CHO-K1); type: cell-based
μOR [7] = molecular target: T1, μOR; assay: Receptor internalization (PathHunter, U2OS); type: cell-based; conditions: compared to DAMGO and morphine
[8] = Metabolism by mouse liver microsomes; type: in vitro ADME; conditions: signaling experiments with resulting metabolite pool
C57BL/6J mice [9] = assay: Hot-plate analgesia; type: in vivo, mouse
[10] = system: Oprm1−/− and wild-type C57Bl/6J mice; assay: Hot plate: affective/reflexive subcategorization and μOR knockout mice; type: in vivo, mouse
μOR [11] = molecular target: T1, μOR; assay: β-arrestin2 recruitment by BRET without GRK2; type: cell-based; conditions: no GRK2
κOR [12] = molecular target: T2, κOR (Homo sapiens (Human), UniProt P41145); assay: Gi/o Glosensor assay at κOR; type: cell-based
μOR [13] = molecular target: T1, μOR; assay: Calcium release (FLIPR); type: cell-based
Protocol: Calcium release was measured using a FLIPR^TETRA fluorescence imaging plate reader (Molecular Devices). Calcium release experiments were run in parallel to Gi/o Glosensor experiments with the same HEKT cells transfected with μOR, except cells for FLIPR were plated in poly-lysine coated 384-well black clear bottom cell culture plates. […] Dye was incubated for 1 hour at 37° C. Afterwards, cells were equilibrated to room temperature, and fluorescence in each well was read for the initial 10 seconds to establish a baseline. Afterwards, 10 μL of drug (3×) was added per well and the maximum-fold increase in fluorescence was determined as fold-over-baseline. Drug solutions used for the FLIPR assay were exactly the same as used for Gi/o Glosensor experiments. To activate endogenous Gq-coupled receptors as a positive control for calcium release, TFLLR-NH2 (10 μM, PAR-1 selective agonist) was used.

μOR [14] = molecular target: T1, μOR; assay: BRET-based cAMP accumulation assay (CAMYEL) for SAR of PZM21-29; type: cell-based; conditions: Gi/o signaling, FIG. 4 analogs
κOR [15] = molecular target: T2, κOR; assay: Radioligand binding at κOR (PDSP); conditions: Table 2; no Ki, below 50%
μOR [16] = molecular target: T1, μOR; assay: Radioligand competition binding vs 3H-diprenorphine at μOR
mice [17] = assay: Whole body plethysmography (respiration); conditions: equianalgesic doses: PZM21 40 mg/kg, TRV130 […], morphine 10 mg/kg
μOR [18] = molecular target: T1, μOR; assay: Radioligand depletion assay for irreversible binding, wild-type μOR
hMOR + Gqi5 = hMOR + Gqi5 (Homo sapiens (Human), UniProt P35372); assay: IP accumulation assay hMOR + Gqi5; type: cell-based; conditions: % morphine, at 10 μM

Structure (SMILES): CC(C)[C@H](CNC(=O)c1ccc([N+](=O)[O-])s1)N1CCc2ccccc2C1 [Compound 8]
- Gi/o activation / μOR agonist activity (μOR [1]): activated Gi/o

Structure (SMILES): C[C@H](Cc1ccsc1)NC(=O)NC[C@H](Cc1ccc(O)cc1)N(C)C [(S,R)-21, 1-[(S)-2-(Dimethylamino)-3-(4-hydroxyphenyl)propyl]-3-((R)-1-(thiophen-3-yl)propan-2-yl)urea]
- Gi/o activation / μOR agonist activity (μOR [1]): more potent partial agonist of the μOR

Structure (SMILES): CN(C)[C@H](CNC(=O)NCCc1ccsc1)Cc1ccc(O)cc1 [DD 16, (S)-1-(2-(dimethylamino)-3-(4-hydroxyphenyl)propyl)-3-(2-(thiophen-3-yl)ethyl)urea]
- MOR agonist (potency annotation under structure) (MOR): (23) 58 nM MOR agonist

Structure (SMILES): Cc1cc(O)cc(C)c1C[C@@H](CNC(=O)NCCN1C(=O)C=CC1=O)N(C)C [DD 144, (S)-1-(2-(dimethylamino)-3-(4-hydroxy-2,6-dimethylphenyl)propyl)-3-(2-(2,5-dioxo-2,5-dihydro-1H-pyrrol-1-yl)ethyl)urea]
- functional classification given with the label (MOR): DD 144 (ANTAGONIST, Covalent) [drawing 455]

Structure (SMILES): C[C@@H](Cc1ccsc1)NC(=O)NC[C@H](Cc1ccc(O)cc1)N(C)C [PZM21, 1-[(S)-2-(Dimethylamino)-3-(4-hydroxyphenyl)propyl]-3-((S)-1-(thiophen-3-yl)propan-2-yl)urea]
- formalin injection nociception (mice [2]): active
- blood brain barrier penetration [3]: substantial fraction
- nociceptin receptor agonist activity (nociceptin receptor): no detectable
- tail-flick analgesia (C57BL/6J mice [4]): no activity; also recorded: no analgesic effect
- arrestin recruitment with over-expressed GRK2 (μOR [5]): weak arrestin recruitment efficacy; also recorded: we observe arrestin recruitment
- β-arrestin2 recruitment in PathHunter assay (μOR [6]): undetectable; also recorded: minimal recruitment; also recorded: no detectable
- μOR internalization (μOR [7]): minimal level
- μOR activation by metabolite pool [8]: no evidence of a metabolite with more potent activation of the μOR
- hot-plate % MPE (C57BL/6J mice [9]; 15 minutes after highest dose tested, s.c.): 87%
- hot-plate analgesia (C57BL/6J mice [9]; mouse, in vivo): dose-dependent analgesia
- analgesic response in μOR knockout mice ([10]; Oprm1−/− mice, hot plate): completely ablates
- affective vs reflexive component of pain ([10]; hot plate 52.5° C.): only modulates the affective component of pain; also recorded: solely confers analgesia to the affective component of pain
- β-arrestin2 recruitment in the absence of GRK2 (μOR [11]): no β-arrestin2 recruitment
- κOR agonist activity (κOR [12]): no detectable
- mode of action at κOR (κOR [12]; antagonist mode): antagonist
- calcium release (μOR [13]): no activity

Structure (SMILES): CN(C=O)[C@H](CNC(=O)NCCc1ccccc1)Cc1ccc(O)cc1 [PZM28, (S)—N-(1-(4-Hydroxyphenyl)-3-(3-phenethylureido)propan-2-yl)-N-methylformamide]
- loss of potency relative to parent (μOR [14]): 1000 fold

Structure (SMILES): CN(C)[C@@H](CNC(=O)NC[C@@H](O)c1cnn(C)c1)Cc1ccccc1 [Compound 11]
- κOR Ki, given as <50% (κOR [15]): <50%

Structure (SMILES): O=C(Cc1cn2ccccc2n1)NCC1(c2ccccc2)CCC1 [Compound 9]
- μOR Ki column, given as <50% (μOR [16]): <50%

Structure (SMILES): Cc1nc(CNC(=O)NC[C@@H](Cc2ccccc2)N(C)C)sc1C [Compound 15]
- κOR Ki, given as <50% (κOR [15]): <50%

Structure (SMILES): CN(CC1CC1)[C@H](CNC(=O)NCCc1ccccc1)Cc1ccc(O)cc1 [PZM27, (S)-1-(2-((Cyclopropylmethyl)(methyl)amino)-3-(4-hydroxyphenyl)propyl)-3-phenethylurea×CF3COOH]
- efficacy and potency as agonist (μOR [14]): decreased efficacy
- loss of potency relative to parent (μOR [14]): 30 fold

Structure (SMILES): C[C@@H](Cc1ccsc1)NC(=O)NC[C@H](Cc1ccccc1)N(C)C [(S,S)-12, 1-[(S)-2-(Dimethylamino)-3-phenylpropyl]-3-[(S)-1-(thiophen-3-yl)propan-2-yl]urea]
- MOR agonist (potency annotation under structure) (MOR): (S,S)-12 12 nM MOR agonist

Structure (SMILES): COc1ccsc1CNCC[C@@]1(c2ccccn2)CCOC2(CCCC2)C1 [TRV130, reference compound]
- arrestin recruitment with over-expressed GRK2 (μOR [5]): we observe arrestin recruitment
- β-arrestin2 recruitment in the absence of GRK2 (μOR [11]): no β-arrestin2 recruitment
- respiration frequency / respiratory depression (mice [17]): significantly depresses respiration at 15 minutes

Structure (SMILES): CN(Cc1nnc(C2CC2)n1C)C(=O)NC[C@@H](Cc1ccccc1)N(C)C [Compound 10]
- κOR Ki, given as <50% (κOR [15]): <50%

Structure (SMILES): Cc1cc(O)cc(C)c1C[C@@H](CNC(=O)NCCc1ccsc1)N(C)C [DD 34L, (S)-1-(2-(dimethylamino)-3-(4-hydroxy-2,6-dimethylphenyl)propyl)-3-(2-(thiophen-3-yl)ethyl)urea]
- functional classification given with the label (MOR): DD 34L (ANTAGONIST) [drawing 449]

Structure (SMILES): CN(C)[C@H](CNC(=O)NCCc1cn(CCSSCCN=[N+]=[N-])nn1)Cc1ccc(O)cc1 [PZM29, (S)-1-(2-(1-(2-((2-Azidoethyl)disulfanyl)ethyl)-1H-1,2,3-triazol-4-yl)ethyl)-3-(2-(dimethylamino)-3-(4-hydroxyphenyl)propyl)urea×CF3COOH]
- irreversible binding to wild-type μOR (μOR [18]): not the wild-type receptor
- efficacy and potency as agonist (μOR [14]): retains its efficacy as an agonist

Structure (SMILES): Cc1cc(O)cc(C)c1C[C@@H](CNC(=O)N[C@H](C)Cc1ccsc1)N(C)C [BD 131LR, 1-((S)-2-(dimethylamino)-3-(4-hydroxy-2,6-dimethylphenyl)propyl)-3-((R)-1-(thiophen-3-yl)propan-2-yl)urea]
- hMOR + Gqi5 IP accumulation assay efficacy a @ 10 μM (hMOR + Gqi5): @ 10 μMa: 10%

Reference: patent publication US11484525B2 (priority 2015, dated 2022)
